Test results taken from patent US6566064B1, “Method for anticipating sensitivity to medicine for osteoporosis” (Nipro Corporation, priority 1999, dated 2003).
Where two headings read alike, the source gives them in different places.

Tests used:
[1] = tested on: Japanese females after menopause; assay: Change in bone mineral density after administration of a medicine, by VDR/ER/ApoE3 genotype (Reference Example 2); type: in vivo, human
Experimental: (§1) The 177 Japanese females after the polymorphism analysis as described above were each measured for bone mineral density. Then, one of vitamin D, estrogen, and vitamin K2 was administered to the patients for 6 months. The administration amount was 1μg/day for vitamin D, 0.312 mg/day for estrogen, and 45 mg/day for vitamin K2. After 6 months, the bone mineral density was measured again and an index of change in bone mineral density between before and after the administration of a medicine was obtained. A value obtained by subtracting an anticipated value of therapeutic effect of each medicine (total average therapeutic effect on randomly sampled patients; Table 3) from an average index of change in bone mineral density for each genotype was defined as sensitivity to a medicine for each genotype.
Blood was collected from 167 Japanese females after menopause randomly selected and blood cells were fractionated and genome DNA was extracted and purified by conventional methods. A VDR gene fragment, an ER gene fragment and an ApoE gene fragment were separately amplified using the genome DNA as a template and the same primer pairs as in Reference Example 1 under the same amplification conditions.
After treating the gene amplification reaction mixtures with a restriction enzyme respectively, the reaction mixtures were subjected to agarose gel electrophoresis. In the case where each amplification product was cleaved with the restriction enzyme at the polymorphism site, bands of 4.6 kbp and 2.6 kbp were detected for the VDR amplification product, bands of 900 bp and 400 bp were detected for the ER amplification product, and bands of 72, 48, 38, 35, 19, 17, and 15 bp were detected for the ApoE amplification product.
To detect ApoE3 type alleles, the amplification products were treated with Hha I, and were subjected to agarose electrophoresis gel. After the electrophoresis, the gels were dyed with ethidium bromide and polymorphisms of the ApoE genes were discriminated based on the band patterns and ApoE3 types identified as a combination of bands as below described.
The 8 polymorphism groups were classified (Table 4).

[2] = tested on: Japanese females after menopause; assay: Change in bone mineral density after 6 month administration of a medicine, by VDR/ER/ApoE4 genotype (Reference Example 1); type: in vivo, human; settings: for Average therapeutic effect (%) - Anticipated therapeutic effect (%) / Anticipated therapeutic effect value (index of change in bone mineral density) after 6 month administration of a medicine, Average: 6 months; for Anticipated therapeutic effect value (index of change in bone mineral density) after 6 month administration of a medicine, Average: total average on randomly sampled patients, vitamin D 1 μg/day, estrogen 0.312 mg/day, vitamin K2 45 mg/day
Source text: In the present invention, the pluralities of remedies for osteoporosis are preferably vitamin D, estrogen, and vitamin K2. Here, the sensitivity to a remedy for osteoporosis means the degree of therapeutic effect of the remedy on osteoporosis. That is, in the case where a medicine A is higher in therapeutic effect than a medicine B in a patient, “the sensitivity of the patient to the medicine A is higher than the sensitivity to the medicine B”. In the present invention, using a change in bone mineral density before and after administration of a medicine as an index of sensitivity, it is defined that the greater the value of “index of change in bone mineral density”−“index of change in anticipated bone mineral density”, the higher is the sensitivity to the medicine.
Blood was collected from 177 Japanese females after menopause randomly selected and blood cells were fractionated and genome DNA was extracted and purified by conventional methods. A VDR gene fragment, an ER gene fragment, and an ApoE gene fragment were separately amplified using the genome DNA as a template and the following primer pairs.
The PCR conditions were denaturation: 94° C., 60 seconds; annealing: 62° C., 60 seconds; elongation: 72° C., 60 seconds (30 cycles) for the VDR gene, denaturation: 94° C., 30 seconds; annealing: 65° C., 30 seconds; elongation: 72° C., 30 seconds (30 cycles) for the ER gene, and denaturation: 94° C., 30 seconds; annealing: 61° C., 40 seconds; elongation: 72° C., 90 seconds (30 cycles) for the ApoE gene. This PCP amplification gave a VDR gene fragment of 7.2 kbp, an ER gene fragment of 1.3 kbp, and an ApoE gene fragment of 244 bp containing polymorphism sites, respectively. After treating a VDR gene amplification reaction mixture with Bsm I, an ER gene amplification reaction mixture with Xba I, and an ApoE gene amplification reaction mixture with Hha I, the reaction mixtures were subjected to agarose gel electrophoresis. In the case where each amplification product was cleaved with the restriction enzyme at the polymorphism site, bands of 4.6 kbp and 2.6 kbp were detected for the VDR amplification product, bands of 900 bp and 400 bp were detected for the ER amplification product, and bands of 72,48, 38, 35, 19, 17, and 15 bp were detected for the ApoE amplification product.
The band of 72 bp was not detected in the case where there is no typE4 (that is, 4(−)). After the electrophoresis, the gels were dyed with ethidium bromide and polymorphisms of the VDR, ER, and ApoE genes were discriminated based on the band patterns and classified into 8 polymorphism groups (Table 3).
as §1

[3] = cited from earlier work
[4] = VDR genotype A (not cleaved with Apa I) compared with genotype a; cited from earlier work
[5] = DBP genotype group of the GC2-2 type compared with the other groups; cited from earlier work

| Compound | Average therapeutic effect (%) - Anticipated therapeutic effect (%) ([1]; genotype B(+)X(+)3(+)) | Average therapeutic effect (%) - Anticipated therapeutic effect (%) ([1]; genotype B(+)X(−)3(+)) | Average therapeutic effect (%) - Anticipated therapeutic effect (%) ([1]; genotype B(−)X(+)3(+)) | Average therapeutic effect (%) - Anticipated therapeutic effect (%) ([1]; genotype B(−)X(−)3(+)) | Average therapeutic effect (%) - Anticipated therapeutic effect (%) ([1]; genotype B(−)X(−)3(−)) | Average therapeutic effect (%) - Anticipated therapeutic effect (%) ([2]; genotype B(+)x(+)4(−)) | Average therapeutic effect (%) - Anticipated therapeutic effect (%) ([2]; genotype B(+)x(−)4(+)) | Average therapeutic effect (%) - Anticipated therapeutic effect (%) ([2]; genotype B(+)x(−)4(−)) | Average therapeutic effect (%) - Anticipated therapeutic effect (%) ([2]; genotype B(−)X(+)4(−)) | Average therapeutic effect (%) - Anticipated therapeutic effect (%) ([2]; genotype B(−)X(−)4(+)) | Average therapeutic effect (%) - Anticipated therapeutic effect (%) ([2]; genotype B(−)X(−)4(−)) | Anticipated therapeutic effect value (index of change in bone mineral density) after 6 month administration of a medicine, Average [2] | Average therapeutic effect (%) - Anticipated therapeutic effect (%) ([1]; genotype B(+)X(−)3(−)) | Average therapeutic effect (%) - Anticipated therapeutic effect (%) ([1]; genotype B(−)X(+)3(−)) | Average therapeutic effect (%) - Anticipated therapeutic effect (%) ([2]; genotype B(−)X(+)4(+)) | further results |
| --- | --- | --- | --- | --- | --- | --- | --- | --- | --- | --- | --- | --- | --- | --- | --- | --- |
| CC(C)=CCC/C(C)=C/CC/C(C)=C/CC/C(C)=C/CC1=C(C)C(=O)c2ccccc2C1=O [Vitamin K2, vitamin K2] | 3.248% | 1.852% | −0.2083% | −0.8443% | −2.855% | 1.46% | −0.59% | 1.08% | 0.60% | −2.68% | 0.68% | 0.59% | – | – | – | sensitivity to the medicine relative to the other two medicines ([2]; genotypes [B(−) X(−) 4(−)] and [B(+) X(−) 4(−)]): higher than the sensitivity to vitamin D and the sensitivity to estrogen; sensitivity to vitamin K2 ([3]; ApoE4(+) group compared with ApoE4(−) group): significantly lower |
| estrogen | 0.4144% | −0.8961% | 3.741% | −0.07099% | −1.151% | 1.74% | −1.07% | −0.93% | 2.78% | −2.52% | −0.94% | 3.26% | 0.03227% | 4.514% | 7.87% | sensitivity to the medicine relative to the other two medicines ([2]; genotypes [B(−) X(+) 4(−)], [B(−) X(+) 4(+)], [B(+) X(+) 4(−)] and [B(+) X(+) 4(+)]): higher than the sensitivity to vitamin D and the sensitivity to vitamin K2; sensitivity to estrogen ([3]; ER genotype PpXx compared with other genotype groups): significantly higher |
| vitamin D | −0.6927% | 0.02042% | 1.643% | 0.4017% | 1.498% | −1.75% | −0.27% | −0.66% | 0.37% | 0.56% | 0.05% | 1.15% | 2.234% | −3.114% | 0.34% | sensitivity to vitamin D [4]: more sensitive; sensitivity to vitamin D [5]: higher in sensitivity; Average therapeutic effect (%) - Anticipated therapeutic effect (%) ([1]; genotype B(+)X(+)3(−)): 0.461%; Average therapeutic effect (%) - Anticipated therapeutic effect (%) ([2]; genotype B(+)x(+)4(+)): 0.46%; sensitivity to the medicine relative to the other two medicines ([2]; genotype [B(−) X(−) 4(+)]): higher than the sensitivity to vitamin K2 and the sensitivity to estrogen; sensitivity to vitamin D ([3]; VDR genotype AAB compared with aabb): significantly lower |
